Laboratory results from patent US20250057803A1, “PRODUCTS OF MANUFACTURE AND METHODS FOR TREATING, AMELIORATING OR PREVENTING CORONAVIRUS INFECTION” (TOPELIA AUST LIMITED (ACN 652 771 670), priority 2020, published 2025).

Columns and labels:
coronavirus COVID-19 [1] = assay type: in vivo, human
coronavirus COVID-19 [2] = assay type: in vivo; conditions: contact of a positive patient; after 4 days of treatment

SMILES | contraction of COVID-19 under prophylaxis (coronavirus COVID-19 [1]; […], group of elderly travelers on a ship with cases) | test for the virus upon arrival home after the cruise (coronavirus COVID-19 [1]; in vivo) | blood result for COVID-19 virus (coronavirus COVID-19 [2])
CCN(CC)CCCC(C)Nc1ccnc2cc(Cl)ccc12 (stereo not drawn) [chloroquine] | None contract COVID-19 coronavirus | negative | 
CCOC(=O)C1=C[C@@H](OC(CC)CC)[C@H](NC(C)=O)[C@@H](N)C1 [osteltamivir, oseltamivir] |  |  | positive
